Test [1] relates to Saccharomyces cerevisiae. Description: Antimicrobial activity against rad52 gene deficient and DNA repair deficient yeast RS322. The test is classed as functional.
The subject of test [2] is Saccharomyces cerevisiae. Description: Antimicrobial activity against rad52.top1 gene deficient yeast RS321. The test is classed as functional.
The subject of test [3] is Saccharomyces cerevisiae. Put plainly: Antimicrobial activity against rad gene expressing and DNA repair proficient wild type yeast RS188N. The test is classed as functional.
The test system of test [4] is A549. Put plainly: Cytotoxicity against human A549 cells. The test is classed as functional, cell-based.
Test [5] is described as follows: Cytotoxicity against human NCI60 cells. It counts as functional.

Converted amounts (≈) assume the structure as drawn. The source made the active and inactive calls. The calls are words filed in the database; no cut-off is given here. Some results are limits rather than exact numbers.

The compound `C=C(CO)C(=O)[C@H]1CCC2=CC(=O)C[C@H](C)[C@]21C` displayed an IC12 in test [1] above 500 µg/mL.

Turning to `C[C@H]1CCC=C2CC[C@H](C(=O)C(O)(CO)CO)[C@@]21C`, the result in test [1] was inactive.

`C=C(C)C(=O)[C@H]1CC(=O)C2=CC(=O)C[C@H](C)[C@]21C` returned an IC12 in test [1] above 500 µg/mL.

Consider `C[C@H]1CC[C@@H](O)[C@]23CC[C@H](C(=O)O2)[C@]13C` [RIVULALACTONE], for which the IC12 in test [1] was above 500 µg/mL.

Turning to `C[C@H]1CCC=C2CC[C@H](C(=O)C3(CO)CO3)[C@@]21C` (stereo partly specified), the result in test [1] was inactive.

Consider `C=C(CO)C(=O)[C@H]1CCC2=CCC[C@H](C)[C@]21C`, for which the IC12 was 75 µg/mL in test [1], above 1000 µg/mL in test [2] and 88 µg/mL in test [3]. In test [4], the IC50 (in general, the concentration that inhibits the measured activity by half) was determined as 2 µg/mL (≈ 8.53 µM). Besides, halving of growth in test [5] (GI50) required 10 µM.

For the compound `C=C(C)C(=O)[C@H]1CCC2=CC(=O)C[C@H](C)[C@]21C`, the IC12 in test [1] was above 500 µg/mL.

(Values after ChEMBL document CHEMBL1158868, “Bioactive and other sesquiterpenes from Chiloscyphus rivularis” (J Nat Prod, 1997).)
